Values quoted from earlier work as cited in US20110130710A1, “TREATMENT OF ABNORMAL OR EXCESSIVE SCARS” (priority 2007, published 2011).

Tests used:
[1] = applied topically
epithelial tissue = settings: about 50 μl, topical application

For platelet derived growth factor [PDGF], the “effective dose of PDGF” value [1] is given as at least 5 ng/mm^2.

B1: keratinocyte growth factor (protein, UniProt P21781 32-194, looked up)
Fibroblast growth factor 7: CNDMTPEQMATNVNCSSPERHTRSYDYMEGGDIRVRRLFCRTQWYLRIDKRGKVKGTQEMKNNYNIMEIRTVAVGIVAIKGVESEFYLAMNKEGKLYAKKECNEDCNFKELILENHYNTYASAKWTHNGGEMFVALNQKGIPVRGKKTKKEQKTAHFLPMAIT
notes: growth factor useful for wound healing
In the case of B1, the “concentration of KGF that may be effective for wound healing” value (epithelial tissue) is listed as “about 5 μg/ml”.
